According to patent publication EP2060571A1, “Insecticide iminoheterocycles” (Bayer CropScience AG, priority 2007, dated 2009):
Where two headings read alike, the source gives them in different places.

Experiments:
[1] = logP determination (acidic, HCOOH); format: physicochemical
[2] = test system: Myzus persicae; test: Myzus test (spray treatment); format: in vivo; conditions: Aufwandmenge 500 g/ha, Chinakohlblattscheiben (Brassica pekinensis) sprayed, 100 % = all aphids killed, read-out: Wirkung
Description: Myzus-Test (Spritzbehandlung)
Zur Herstellung einer zweckmäßigen Wirkstoffzubereitung vermischt man 1 Gewichtsteil Wirkstoff mit den angegebenen Mengen Lösungsmittel und Emulgator und verdünnt das Konzentrat mit emulgatorhaltigem Wasser auf die gewünschte Konzentration.
Chinakohlblattscheiben (Brassica pekinensis), die von allen Stadien der Grünen Pfirsichblattlaus (Myzus persicae) befallen sind, werden mit einer Wirkstoffzubereitung der gewünschten Konzentration gespritzt.
Nach der gewünschten Zeit wird die Wirkung in % bestimmt. Dabei bedeutet 100 %, dass alle Blattläuse abgetötet wurden; 0 % bedeutet, dass keine Blattläuse abgetötet wurden.

[3] = test system: Boophilus microplus; test: Boophilus microplus test (BOOPMI injection); format: in vivo; conditions: Aufwandmenge 20 µg/Tier; injected into the abdomen; 100 % = no tick laid fertile eggs
Description: Boophilus microplus -Test (BOOPMI Injektion)
Lösungsmittel: Dimethylsulfoxid
Zur Herstellung einer zweckmäßigen Wirkstoffzubereitung vermischt man 1 Gewichtsteil Wirkstoff mit der angegebenen Menge Lösungsmittel und verdünnt das Konzentrat mit Lösungsmittel auf die gewünschte Konzentration.
Die Wirkstofflösung wird in das Abdomen (Boophilus microplus) injiziert, die Tiere werden in Schalen überführt und in einem klimatisierten Raum aufbewahrt.
Nach der gewünschten Zeit wird die Wirkung in % bestimmt. Dabei bedeutet 100%, dass keine Zecke fertile Eier gelegt hat.

[4] = acidic (HCOOH), read-out: Phys. Daten = logP (HCOOH)
[5] = hcooh, read-out: Phys. Daten = logP (HCOOH)

**Q.** For `CC(C)c1cs/c(=N\C2CCc3ccsc32)n1CCO` (stereo not shown) [I-1, 2-[(2Z)-2-(5,6-dihydro-4H-cyclopenta[b]thiophen-6-ylimino)-4-(1-methylethyl)-1,3-thiazol-3(2H)-yl]ethanol], which logP [1, 4] is on record?
**A.** Its logP is 1.19.

**Q.** And the logP ([1]; sauer, read-out: logP (sauer))?
**A.** The logP was 1.19.

**Q.** And the mortality at 500 g/ha [2]?
**A.** Its mortality at 500 g/ha is ≥ 80%.

**Q.** And the Wirkung [3]?
**A.** The Wirkung was ≥ 80%.

**Q.** For `C[C@H](NC(=S)NCCO)c1cccs1` [II-74], which logP [1, 5] is on record?
**A.** Its logP is 1.3.

**Q.** With `OCCNC(=S)NC1CCCc2occc21` (stereo not shown) [II-2, 1-(2-hydroxyethyl)-3-(4,5,6,7-tetrahydro-1-benzofuran-4-yl)thiourea] as the compound, how does the logP [1, 5] read?
**A.** The logP was 1.4.

**Q.** And the logP ([1]; sauer, read-out: logP (sauer))?
**A.** The logP was 1.4.

**Q.** What about the mortality at 500 g/ha [2] of the same compound?
**A.** Its mortality at 500 g/ha is ≥ 80%.

**Q.** Which logP [1, 5] does the source give for `OCCNC(=S)NC1CCCc2sccc21` (stereo not shown) [II-3] here?
**A.** Its logP is 1.7.

**Q.** What about the mortality at 500 g/ha [2] of the same compound?
**A.** The mortality at 500 g/ha was ≥ 80%.

**Q.** With `OCCNC(=S)NC1CCc2ccsc21` (stereo not shown) [II-1, (5,6-dihydro-4H-cyclopenta[b]thiophen-6-yl)-3-(2-hydroxyethyl)thiourea] as the compound, how does the logP [1, 5] read?
**A.** Its logP is 1.47.

**Q.** What about the logP ([1]; sauer, read-out: logP (sauer)) of the same compound?
**A.** Its logP is 1.47.

**Q.** What about the mortality at 500 g/ha [2] of the same compound?
**A.** The mortality at 500 g/ha was ≥ 80%.

**Q.** What does the source list for `CC(C)c1cs/c(=N\C2CCCc3occc32)n1CCO` (stereo not shown) [I-2]?
**A.** logP [1, 4]: 1.23; logP ([1]; sauer, read-out: logP (sauer)): 1.23; mortality at 500 g/ha [2]: ≥ 80%
